Results published in patent publication US11702442B2, “Cyclic dinucleotide compounds as sting agonists” (The Regents of the University of California, priority 2019, dated 2023).
“Also recorded” adds a separate entry of the source.

How the values were obtained:
rocR = biological target: T1, rocR (Pseudomonas aeruginosa, UniProt Q9HX69); assay: rocR-mediated CDN hydrolysis monitored by HPLC; type: biochemical, P. aeruginosa; details: for k2 (cleavage reaction) / time to complete cleavage by rocR / k2 / k3 / k1: 100 nM rocR, 37° C.; for k2 / k3: Table 3; for k1: enzyme/substrate association; for order of gradually reduced rocR hydrolysis rate: FIG. 10F
T1 construct: made in house; host or cells: Escherichia coli BL21(DE3)
Source text: [1a,27] rocR is a PDE that contains an EAL domain and specifically recognizes and cleaves c-di-GMP into the linear dinucleotide pGpG. […] [28a,29]
RocR is reported to follow Michaelis-Menten kinetics. [27c,28a] Scheme 2a was therefore used to analyze the reaction kinetics, where k1 and k−1 describe the enzyme/substrate association and dissociation, respectively, while k2 reflects the cleavage reaction. Equations (10)-(13) were thus used to extract the rate constants. When “asymmetrical” mixed c-di-GMP analogues are treated with rocR, the enzyme may, in principle, recognize and cleave either phosphodiester bonds, producing pN1pN2 and pN2pN1. Assuming the two products result from different binding orientation of the heterodimeric CDNs, Scheme 2b is therefore introduced to model the cleavage reactions, where k1, k−1 and k2 reflect the association/dissociation and cleavage of the heterodimeric CDN in one orientation, respectively, and k3, k−3 and k4 reflect the other. Equations (14)-(19) were used to extract the rate constants.
Equations(10)-(19) d[S]/dt=−k1[E][S]+k−1[ES] (10) d[E]/dt=−k1[E][S]+k−1[ES]+k2[ES] (11) d[P]/dt=k2[ES] (12) d[ES]/dt=k1[E][S]−k−1[ES]−k2[ES] (13) d[S]/dt=−k1[E][S]+k−1[ES1]−k3[E][S]+k−3[ES2] (14) d[P1]/dt=k2[ES1] (15) d[P2]/dt=k4[ES2] (16) d[E]/dt=−(k1+k3)[E][S]+(k−1+k2)[ES1]+[…][ES2]] (17) d[ES1]/dt=k1[E][S]−k−1[ES1]−k2[ES1] (18) d[ES2]/dt=k3[E][S]−k−3[ES2]−k4[ES2] (19)
CDN hydrolysis with rocR. […] of CDN was incubated with 100 nM of rocR in a buffer containing 100 mM Tris-HCI, pH 8, 20 mM KCI, 25 mM MgCl2 at 37° C. Aliquots of the reaction mixture were taken out at designated time points and quenched with 100 mM CaCl2. All aliquots were filtered before subjected to reverse-phase HPLC analysis. The reaction mixture was separated by Sepax Bio C-18 column (250×10 mm, 5 µm particle size) with a gradient of 0.1-15% of 10 mM NH4OAc, pH7 in Me0H in 12 minutes at 25° C. or 50° C. (only for reactions of c-GtzGMP and c-di-tzGMP) on an Agilent 1200 series HPLC system (Agilent Technologies).
Data Analysis and curve fitting. […] The relative concentrations were plotted against time.

DncV = DncV (Vibrio cholerae serotype O1, UniProt Q9KVG7); details: pseudo-second order simulation, FL Model 2
Procedure: The bacterial enzyme DncV was thus incubated with either GTP, ^thGTP, ^tzGTP or mixtures thereof under the same conditions as the HPLC-monitored reactions. Aliquots were treated with calf intestinal alkaline phosphatase (CIAP) at designated times, and emission spectra were taken after appropriate dilution.
Unlike integrated chromatographic analyses, which can separately account for all individual species present, the observed fluorescence signal reflects the sum of all emissive species. To facilitate quantitative analyses of fluorescence data, a conversion factor (a) was introduced to the simulation of the fluorescence-monitored reaction kinetics. This factor bridges the integrated fluorescent spectrum and the concentration of a given chromophore at a given set of conditions and can be calculated from the integrated emission spectrum (FLint) of a given chromophore with known concentration ([C]) using Equation (5). […] To compare the fluorescence- and HPLC-monitored reaction kinetics, Equation (6) was used to correlate the recorded fluorescence spectrum with the concentrations of different species in the reaction mixture. As a first attempt, the k values extracted from the HPLC analysis were used to fit the fluorescence data (referred to as FL Model 1). […]

STING pathway = assay: Type-I IFN production in THP-1 cells detected with HEK-Blue IFN α/β reporter cells; type: cell-based, human; details: 5 μM CDN, 4 h incubation, compared with c-di-GMP
Procedure: THP-1 cells were seeded at a density of 100000 cells/well in a 96-well cell culture plate and differentiated with 25 nM of PMA for approximately 20 h prior to treatment with CDNs. Cells were transfected with 5 μM of CDNs in a permeabilization buffer containing 5 μg/mL of digitonin, then washed and incubated in RPMI medium with 2% FBS at 37° C. for 4 h. 50 μL of cell culture supernatant per well was transferred to 150 μL of HEK-Blue IFN α/β reporter cells seeded at 50000 cells/well in a 96-well cell culture plate and incubated at 37° C. overnight. The reporter cells were spun down the next day, and 50 μL of cell culture supernatant per well was transferred to a 96-well plate and added with 150 μL of QUANTI-Blue™ SEAP detection medium (InvivoGen). The samples were then incubated at 37° C. for 1 h 20 min before absorption was measured at 640 nm. The absorption signal of each sample was normalized to untreated samples. Two independent assays were performed in duplicate or triplicate. Error bars indicate SD.
To preliminarily determine whether the synthetic c-di-GMP analogues could activate the IFN response in eukaryotic cells, THP-1 cells were treated with 5 μM of c-di-GMP, c-GthGMP and c-di-thGMP.
Detecting type-I IFN production with reporter cells. […] The samples were then incubated at 37° C. for 80 min before absorption was measured at 640 nm with an EnSpire plate reader (PerkinElmer). […]

T1 sequence (Q9HX69 whole entry): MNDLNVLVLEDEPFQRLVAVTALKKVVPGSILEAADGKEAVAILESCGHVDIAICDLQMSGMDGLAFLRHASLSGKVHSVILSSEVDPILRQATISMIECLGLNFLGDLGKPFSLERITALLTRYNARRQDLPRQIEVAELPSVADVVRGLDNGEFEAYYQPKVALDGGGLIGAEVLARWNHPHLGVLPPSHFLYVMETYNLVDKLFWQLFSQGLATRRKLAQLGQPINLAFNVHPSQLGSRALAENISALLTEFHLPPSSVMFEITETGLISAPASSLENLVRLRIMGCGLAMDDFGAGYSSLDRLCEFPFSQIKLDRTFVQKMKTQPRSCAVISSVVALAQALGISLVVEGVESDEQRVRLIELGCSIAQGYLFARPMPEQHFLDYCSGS
DncV, sequence (Q9KVG7 whole entry): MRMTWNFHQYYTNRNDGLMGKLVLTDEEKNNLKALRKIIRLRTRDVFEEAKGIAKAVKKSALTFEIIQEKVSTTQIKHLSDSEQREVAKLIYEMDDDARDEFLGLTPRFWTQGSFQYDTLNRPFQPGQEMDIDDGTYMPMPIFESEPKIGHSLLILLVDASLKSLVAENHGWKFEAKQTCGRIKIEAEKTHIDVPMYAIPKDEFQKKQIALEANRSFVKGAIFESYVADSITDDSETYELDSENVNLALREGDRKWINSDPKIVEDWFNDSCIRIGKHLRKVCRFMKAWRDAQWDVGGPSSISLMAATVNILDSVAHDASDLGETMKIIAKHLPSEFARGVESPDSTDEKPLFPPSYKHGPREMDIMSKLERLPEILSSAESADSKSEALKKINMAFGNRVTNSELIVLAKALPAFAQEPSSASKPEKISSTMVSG

Row | SMILES | k2 (cleavage reaction) (rocR) [s⁻¹] | time to complete cleavage by rocR (rocR) [min] | k2 (rocR) [s⁻¹] | k3 (rocR) [s⁻¹] | k1 (rocR) [M⁻¹ s⁻¹] | order of gradually reduced rocR hydrolysis rate (rocR) | kapp (apparent kinetics rate constant) (DncV) [M⁻¹ s⁻¹] | products of rocR-mediated cleavage (rocR; mixed CDNs, HPLC) | type-I IFN induction (STING pathway) | cleavage by rocR (rocR; after 40 min of incubation with rocR)
1 | Nc1nc2c(ncn2[C@@H]2O[C@@H]3COP(=O)(O)O[C@H]4[C@@H](O)[C@H](n5cnc6c(=O)[nH]c(N)nc65)O[C@@H]4COP(=O)(O)O[C@H]3[C@H]2O)c(=O)[nH]1 [c-di-GMP, reference compound] | 0.76 ± 0.03 | ~3 | 1.15 ± 0.21 | 0.76 ± 0.03 | 3.96e+06 ± 70000 | c-di-GMP, c-di-^tzGMP, c-G^tzGMP, c-G^thGMP and lastly c-di-^thGMP |  |  |  | 
2 | Nc1nc2c([C@@H]3O[C@@H]4COP(=O)(O)O[C@H]5[C@@H](O)[C@H](c6snc7c(=O)[nH]c(N)nc67)O[C@@H]5COP(=O)(O)O[C@H]4[C@H]3O)snc2c(=O)[nH]1 [c-di-^tzGMP] | 0.83 ± 0.55 | ≤ 20 | 0.099 ± 0.07 | 0.83 ± 0.55 | 43000 ± 20000 | c-di-GMP, c-di-^tzGMP, c-G^tzGMP, c-G^thGMP and lastly c-di-^thGMP | 1.57 ± 0.15 |  |  | 
3 | Nc1nc2c([C@@H]3O[C@@H]4COP(=O)(O)O[C@H]5[C@@H](O)[C@H](n6cnc7c(=O)[nH]c(N)nc76)O[C@@H]5COP(=O)(O)O[C@H]4[C@H]3O)scc2c(=O)[nH]1 [c-G^thGMP] |  |  | 0.033 ± 0.001 | 5 ± 0.57 | 21000 ± 1000 | c-di-GMP, c-di-^tzGMP, c-G^tzGMP, c-G^thGMP and lastly c-di-^thGMP |  | a single product | comparable efficiency to cdi-GMP; also recorded: comparable potency to c-di-GMP | 
4 | Nc1nc2c([C@@H]3O[C@@H]4COP(=O)(O)O[C@H]5[C@@H](O)[C@H](c6scc7c(=O)[nH]c(N)nc67)O[C@@H]5COP(=O)(O)O[C@H]4[C@H]3O)scc2c(=O)[nH]1 [c-di-^thGMP] |  |  |  |  |  | c-di-GMP, c-di-^tzGMP, c-G^tzGMP, c-G^thGMP and lastly c-di-^thGMP | 0.53 ± 0.05 |  | no activity | No cleaved c-di-^thGMP was observed; also recorded: did not produce observable amounts of cleaved c-di-^thGMP products
